The species entered for one test is Rattus norvegicus. Kind of test: Agonist activity at Wistar rat brain GABA transporter assessed as tritium efflux by measuring [3H]GABA release at 2 uM after 20 to 30 mins by liquid scintillation counting analysis relative to control.
The target of test [1] is Sodium-dependent dopamine transporter (Rattus norvegicus) (UniProt P23977). Kind of test: Agonist activity at Wistar rat striatum dopamine transporter assessed as tritium efflux by measuring [3H]dopamine release at 2 uM after 20 mins by liquid scintillation counting analysis relative to total tissue content.
Chain of Sodium-dependent dopamine transporter (Rattus norvegicus) (P23977 whole entry): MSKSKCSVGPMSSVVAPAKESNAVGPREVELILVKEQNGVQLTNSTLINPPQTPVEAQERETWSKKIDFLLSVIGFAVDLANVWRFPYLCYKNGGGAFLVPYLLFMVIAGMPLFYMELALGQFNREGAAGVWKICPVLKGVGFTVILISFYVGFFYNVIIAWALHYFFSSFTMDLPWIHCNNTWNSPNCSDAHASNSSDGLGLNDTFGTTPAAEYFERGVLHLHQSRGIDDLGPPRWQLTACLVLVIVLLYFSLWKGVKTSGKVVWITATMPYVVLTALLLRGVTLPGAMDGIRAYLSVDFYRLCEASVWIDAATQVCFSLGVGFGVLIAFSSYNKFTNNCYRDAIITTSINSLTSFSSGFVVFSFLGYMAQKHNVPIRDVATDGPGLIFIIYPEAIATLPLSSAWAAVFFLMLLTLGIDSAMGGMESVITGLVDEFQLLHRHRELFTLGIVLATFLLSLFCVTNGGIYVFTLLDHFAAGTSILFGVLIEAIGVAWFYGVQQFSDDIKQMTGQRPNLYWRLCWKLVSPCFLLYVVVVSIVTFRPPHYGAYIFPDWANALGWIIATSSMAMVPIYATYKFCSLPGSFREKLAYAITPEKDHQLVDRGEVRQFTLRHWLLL
The target of test [2] is Sodium-dependent serotonin transporter (Rattus norvegicus) (UniProt P31652). Description: Agonist activity at Wistar rat brain serotonin transporter assessed as tritium efflux by measuring [3H]serotonin release at 2 uM after 20 to 30 mins by liquid scintillation counting analysis relative to control.
Chain of Sodium-dependent serotonin transporter (Rattus norvegicus) (P31652 whole entry): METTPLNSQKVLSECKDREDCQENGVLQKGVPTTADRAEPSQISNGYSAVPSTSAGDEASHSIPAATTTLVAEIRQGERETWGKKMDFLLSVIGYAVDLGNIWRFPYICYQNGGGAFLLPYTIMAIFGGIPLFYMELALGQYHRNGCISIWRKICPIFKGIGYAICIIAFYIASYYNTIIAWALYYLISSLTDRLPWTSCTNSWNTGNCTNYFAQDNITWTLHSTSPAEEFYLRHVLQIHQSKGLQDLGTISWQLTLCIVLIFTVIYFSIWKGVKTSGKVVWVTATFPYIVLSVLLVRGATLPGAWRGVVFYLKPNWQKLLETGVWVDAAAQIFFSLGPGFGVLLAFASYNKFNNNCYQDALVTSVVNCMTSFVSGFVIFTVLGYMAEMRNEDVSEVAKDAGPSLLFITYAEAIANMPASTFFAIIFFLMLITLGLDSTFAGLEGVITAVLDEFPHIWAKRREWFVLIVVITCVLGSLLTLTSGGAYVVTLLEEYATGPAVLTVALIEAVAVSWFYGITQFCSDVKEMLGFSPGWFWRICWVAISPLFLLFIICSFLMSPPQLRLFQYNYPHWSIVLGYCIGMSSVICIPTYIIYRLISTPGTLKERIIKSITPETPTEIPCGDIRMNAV
Test [3] deals with T1, Vesicular acetylcholine transporter (Rattus norvegicus) (UniProt Q62666).
T1 sequence (whole entry): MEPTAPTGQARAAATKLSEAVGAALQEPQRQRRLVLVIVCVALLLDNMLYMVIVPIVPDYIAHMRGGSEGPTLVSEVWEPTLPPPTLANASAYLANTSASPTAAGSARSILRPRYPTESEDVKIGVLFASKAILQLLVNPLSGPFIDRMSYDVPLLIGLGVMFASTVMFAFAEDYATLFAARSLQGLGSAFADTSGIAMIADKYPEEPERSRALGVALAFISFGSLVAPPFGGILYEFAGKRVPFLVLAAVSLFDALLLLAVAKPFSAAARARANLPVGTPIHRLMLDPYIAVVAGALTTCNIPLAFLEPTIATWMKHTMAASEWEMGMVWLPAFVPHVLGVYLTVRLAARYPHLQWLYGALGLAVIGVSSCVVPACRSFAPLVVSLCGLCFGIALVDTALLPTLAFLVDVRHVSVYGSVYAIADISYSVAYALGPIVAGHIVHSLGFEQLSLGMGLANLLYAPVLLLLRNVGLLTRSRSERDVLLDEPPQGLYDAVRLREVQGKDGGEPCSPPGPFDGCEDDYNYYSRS
Description: Agonist activity at Wistar rat brain cholinergic transporter assessed as tritium efflux by measuring [3H]choline release at 2 uM after 20 to 30 mins by liquid scintillation counting analysis relative to control.

Test [4] has as its target Sodium-dependent dopamine transporter (Rattus norvegicus) (UniProt P23977). Kind of test: Agonist activity at Wistar rat striatum dopamine transporter assessed as tritium efflux by measuring [3H]dopamine release at 1 uM after 20 to 30 mins by liquid scintillation counting analysis in presence of nomifensine.
Test [5] has the same target. Description: Agonist activity at Wistar rat cortex dopamine transporter assessed as tritium efflux by measuring [3H]noradrenaline release at 1 uM after 20 to 30 mins by liquid scintillation counting analysis in presence of nomifensine. It is filed as tissue-based.

The structures appear in SMILES notation. Calls of active or inactive are those of the source. The rule behind the calls is not given here.

Consider `NC1CCc2c(ccc(O)c2O)C1` (stereo unspecified), for which the result (in the test filed under Rattus norvegicus; in test [2]; in test [3]) was inactive. Besides, the Activity in test [1] was found to be 6.5%.

For `NC1CCc2cc(O)c(O)cc2C1` (stereo unspecified), the outcome (in test [4]; in the test listed under Rattus norvegicus; in test [5]; in test [2]; in test [3]) was inactive. The Activity in test [1] is 25.1%.

Regarding `NC1CCc2ccccc2C1` (stereo unspecified), the Activity in test [1] is -0.7%.

Values taken from ChEMBL document CHEMBL3243936, “Facile syntheses of potent dopaminergic argonists and their effect on neurotransmitter release” (J Med Chem, 1978).
